# Results from ChEMBL document CHEMBL1130452, “L-373,890, An achiral, noncovalent, subnanomolar thrombin inhibitor” (Bioorg Med Chem Lett, 1997).
# Columns and labels:
# Serine protease 1 = Serine protease 1 (Homo sapiens, UniProt P07477); assay: Binding affinity against human trypsin
# Prothrombin [1] = biological target: T1, Prothrombin (Homo sapiens, UniProt P00734); assay: Binding affinity against human thrombin
# Chymotrypsinogen A = Chymotrypsinogen A (Bos taurus, UniProt P00766); assay: Binding affinity against serine protease […]; assay type: cell-free
# [2] = biological target: Vitamin K-dependent protein C (Homo sapiens, UniProt P04070); assay: Binding affinity against serine protease Activated protein C
# Plasma kallikrein = Plasma kallikrein (Homo sapiens, UniProt P03952); assay: Binding affinity against serine protease plasma kallikrein; assay type: cell-free
# [3] = biological target: Tissue-type plasminogen activator (Homo sapiens, UniProt P00750); assay: Binding affinity against serine protease Tissue type plasminogen activator
# Plasminogen = Plasminogen (Rattus norvegicus, UniProt Q01177); assay: Binding affinity against serine protease plasmin
# Prothrombin [4] = biological target: T1, Prothrombin; assay: Binding affinity was evaluated against human thrombin
# Sequence of Serine protease 1 (P07477 whole entry): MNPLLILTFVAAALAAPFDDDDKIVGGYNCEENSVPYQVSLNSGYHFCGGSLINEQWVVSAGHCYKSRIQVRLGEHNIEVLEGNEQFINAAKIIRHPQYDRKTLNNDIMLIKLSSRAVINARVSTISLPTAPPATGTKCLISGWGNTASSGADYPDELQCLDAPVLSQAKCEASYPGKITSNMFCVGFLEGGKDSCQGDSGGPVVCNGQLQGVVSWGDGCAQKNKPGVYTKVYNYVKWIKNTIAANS
# Sequence of Plasminogen (Q01177 97-581 limits assumed): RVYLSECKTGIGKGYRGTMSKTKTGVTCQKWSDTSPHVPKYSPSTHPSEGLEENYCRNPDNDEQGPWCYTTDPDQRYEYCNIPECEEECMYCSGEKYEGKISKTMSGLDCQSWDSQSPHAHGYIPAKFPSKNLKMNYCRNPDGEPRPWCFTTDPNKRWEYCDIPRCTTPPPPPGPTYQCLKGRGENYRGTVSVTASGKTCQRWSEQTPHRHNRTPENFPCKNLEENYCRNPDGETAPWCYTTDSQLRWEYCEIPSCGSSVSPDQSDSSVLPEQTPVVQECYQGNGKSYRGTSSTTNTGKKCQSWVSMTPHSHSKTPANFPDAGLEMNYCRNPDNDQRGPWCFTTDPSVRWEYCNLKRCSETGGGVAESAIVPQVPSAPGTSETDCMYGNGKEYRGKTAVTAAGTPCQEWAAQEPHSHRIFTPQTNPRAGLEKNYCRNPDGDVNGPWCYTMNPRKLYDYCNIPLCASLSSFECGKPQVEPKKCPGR
# Sequence of Plasminogen (Q01177 582-812 limits assumed): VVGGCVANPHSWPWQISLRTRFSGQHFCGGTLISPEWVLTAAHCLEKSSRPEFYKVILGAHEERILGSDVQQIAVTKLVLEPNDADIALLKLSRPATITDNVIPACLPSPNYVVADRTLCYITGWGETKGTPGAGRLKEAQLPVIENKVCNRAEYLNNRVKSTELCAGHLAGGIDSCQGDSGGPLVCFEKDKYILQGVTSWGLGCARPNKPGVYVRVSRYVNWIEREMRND
# Sequence of Plasma kallikrein (P03952 20-390 limits assumed): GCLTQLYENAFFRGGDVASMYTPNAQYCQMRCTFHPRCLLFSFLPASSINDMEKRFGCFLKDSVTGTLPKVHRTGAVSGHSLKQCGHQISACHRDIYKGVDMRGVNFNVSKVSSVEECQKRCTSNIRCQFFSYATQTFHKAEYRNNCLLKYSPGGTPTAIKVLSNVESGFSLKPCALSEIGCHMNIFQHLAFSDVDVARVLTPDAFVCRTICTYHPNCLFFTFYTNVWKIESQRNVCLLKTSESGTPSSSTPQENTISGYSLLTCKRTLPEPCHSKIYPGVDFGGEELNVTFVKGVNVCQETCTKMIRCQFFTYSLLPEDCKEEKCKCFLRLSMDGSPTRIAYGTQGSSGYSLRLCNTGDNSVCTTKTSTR
# Sequence of Plasma kallikrein (P03952 391-638 limits assumed): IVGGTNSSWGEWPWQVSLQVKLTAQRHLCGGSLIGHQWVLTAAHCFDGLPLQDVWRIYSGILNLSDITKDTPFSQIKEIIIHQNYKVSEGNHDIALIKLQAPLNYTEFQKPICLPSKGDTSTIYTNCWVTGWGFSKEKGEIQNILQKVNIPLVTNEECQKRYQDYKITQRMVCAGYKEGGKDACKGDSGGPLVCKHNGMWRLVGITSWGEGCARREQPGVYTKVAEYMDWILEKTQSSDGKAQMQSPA
# Sequence of Vitamin K-dependent protein C (P04070 43-197 limits assumed): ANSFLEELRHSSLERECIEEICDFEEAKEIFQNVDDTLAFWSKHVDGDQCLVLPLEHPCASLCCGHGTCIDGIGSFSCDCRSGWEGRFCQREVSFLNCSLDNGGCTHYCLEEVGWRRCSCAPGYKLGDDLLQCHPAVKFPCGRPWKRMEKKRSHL
# Sequence of Vitamin K-dependent protein C (P04070 212-461 limits assumed): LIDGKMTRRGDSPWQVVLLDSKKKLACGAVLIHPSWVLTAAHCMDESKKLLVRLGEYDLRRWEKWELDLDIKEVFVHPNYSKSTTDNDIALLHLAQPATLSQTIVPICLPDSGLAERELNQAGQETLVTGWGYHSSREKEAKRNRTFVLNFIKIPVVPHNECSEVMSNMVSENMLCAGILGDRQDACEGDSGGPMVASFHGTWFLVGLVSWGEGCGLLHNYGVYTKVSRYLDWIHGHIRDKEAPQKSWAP
# Sequence of Tissue-type plasminogen activator (P00750 whole entry): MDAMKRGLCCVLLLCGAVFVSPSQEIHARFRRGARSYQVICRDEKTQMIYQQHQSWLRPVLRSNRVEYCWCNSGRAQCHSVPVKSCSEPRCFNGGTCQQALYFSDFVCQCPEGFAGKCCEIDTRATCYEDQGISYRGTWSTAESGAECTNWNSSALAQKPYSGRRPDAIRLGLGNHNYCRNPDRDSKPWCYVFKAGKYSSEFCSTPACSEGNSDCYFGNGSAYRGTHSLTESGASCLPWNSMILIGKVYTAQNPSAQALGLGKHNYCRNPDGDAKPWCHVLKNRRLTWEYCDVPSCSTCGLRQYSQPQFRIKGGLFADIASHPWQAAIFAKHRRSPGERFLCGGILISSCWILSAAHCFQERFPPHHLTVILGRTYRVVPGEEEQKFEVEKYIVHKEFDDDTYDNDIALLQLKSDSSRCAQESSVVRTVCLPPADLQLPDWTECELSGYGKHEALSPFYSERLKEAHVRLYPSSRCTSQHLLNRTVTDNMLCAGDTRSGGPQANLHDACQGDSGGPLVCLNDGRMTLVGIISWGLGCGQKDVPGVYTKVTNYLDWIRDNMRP
smiles,measurement,setting,value
Cc1ccc(NC(=O)CC(c2ccccc2)c2ccccc2)c(=O)n1CC(=O)NCC1CCN(C(=N)N)CC1,Ki,Serine protease 1,890 nM
same,Ki,Prothrombin [1],166 nM
Cc1ccc(NCCc2ccccc2)c(=O)n1CC(=O)NC[C@H]1CC[C@H](N)CC1,Ki,Serine protease 1,2200 nM
same,Ki,Prothrombin [1],47 nM
Cc1ccc(NS(=O)(=O)Cc2ccccc2)c(=O)n1CC(=O)NC[C@H]1CC[C@H](N)CC1,Ki,Serine protease 1,3000 nM
Cc1ccc(S(=O)(=O)Nc2ccc(C)n(CC(=O)NCC3CCN(C(=N)N)CC3)c2=O)cc1,Ki,Serine protease 1,140 nM
same,Ki,Prothrombin [1],29 nM
Cc1ccc(NS(=O)(=O)Cc2ccccc2)c(=O)n1CC(=O)NCC1CCN(C(=N)N)CC1,Ki,Chymotrypsinogen A,> 20000 nM
same,Ki,[2],> 20000 nM
same,Ki,Plasma kallikrein,> 20000 nM
same,Ki,Serine protease 1,570 nM
same,Ki,[3],> 20000 nM
same,Ki,Plasminogen,> 20000 nM
Cc1ccc(S(=O)(=O)Nc2ccc(C)n(CC(=O)NC[C@H]3CC[C@H](N)CC3)c2=O)cc1,Ki,Serine protease 1,2100 nM
same,Ki,Prothrombin [1],47 nM
Cc1ccc(NC(=O)c2ccccc2)c(=O)n1CC(=O)NCC1CCN(C(=N)N)CC1,Ki,Serine protease 1,1500 nM
same,Ki,Prothrombin [1],690 nM
Cc1ccc(NC(=O)OCc2ccccc2)c(=O)n1CC(=O)NCC1CCN(C(=N)N)CC1,Ki,Serine protease 1,350 nM
same,Ki,Prothrombin [1],77 nM
CN[C@H](Cc1ccccc1)C(=O)N1CCCC1C(=O)NC[C@H]1CC[C@H](N)CC1 (some centres not stated),Ki,Prothrombin [4],5 nM
Cc1ccc(NC(=O)CCc2ccccc2)c(=O)n1CC(=O)NCC1CCN(C(=N)N)CC1,Ki,Serine protease 1,940 nM
same,Ki,Prothrombin [1],95 nM
